# Measurements as given in patent US12378208B2, “N-substituted oseltamivir derivatives with antimicrobial activity” (THE HONG KONG POLYTECHNIC UNIVERSITY, priority 2019, dated 2025).
# Molecular target: NA from A/H3N2 (Influenza A virus, UniProt O91745)
# Assay: biochemical
# Assay type: biochemical, seasonal A/H3N2
# Chain of NA from A/H3N2 (O91745 whole entry, looked up): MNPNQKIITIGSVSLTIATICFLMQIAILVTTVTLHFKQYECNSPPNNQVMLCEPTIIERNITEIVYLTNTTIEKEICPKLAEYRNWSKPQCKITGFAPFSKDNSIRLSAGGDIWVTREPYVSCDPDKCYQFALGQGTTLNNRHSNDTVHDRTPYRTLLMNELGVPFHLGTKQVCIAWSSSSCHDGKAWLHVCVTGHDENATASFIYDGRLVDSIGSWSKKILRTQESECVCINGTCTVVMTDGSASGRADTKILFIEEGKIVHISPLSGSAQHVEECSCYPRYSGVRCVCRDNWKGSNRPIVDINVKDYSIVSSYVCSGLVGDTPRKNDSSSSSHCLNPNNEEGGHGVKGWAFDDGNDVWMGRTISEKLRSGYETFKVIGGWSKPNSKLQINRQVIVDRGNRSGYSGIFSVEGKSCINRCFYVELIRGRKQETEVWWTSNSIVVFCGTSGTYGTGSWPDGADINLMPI
row,Compound,% Inhibition (1 nM) [%]
1,"CCC(CC)O[C@@H]1C=C(C(=O)O)C[C@H](NCc2noc(-c3cccs3)n2)[C@H]1NC(C)=O [Compound S1, (3R,4R,5S)-4-acetamido-3-(pentan-3-yloxy)-5-(((5-(thiophen-2-yl)-1,2,4-oxadiazol-3-yl)methyl)amino)cyclohex-1-ene-1-carboxylic acid]",0.0 ± 2.2
2,"CCC(CC)O[C@@H]1C=C(C(=O)O)C[C@H](NCc2noc(-c3ccc(C(F)(F)F)cc3)n2)[C@H]1NC(C)=O [Compound S2, (3R,4R,5S)-4-acetamido-3-(pentan-3-yloxy)-5-(((5-(4-(trifluoromethyl)phenyl)-1,2,4-oxadiazol-3-yl)methyl)amino)cyclohex-1-ene-1-carboxylic acid]",8.0 ± 1.7
3,"CCC(CC)O[C@@H]1C=C(C(=O)O)C[C@H](NCc2noc(-c3ccc(F)cc3)n2)[C@H]1NC(C)=O [Compound S3, (3R,4R,5S)-4-acetamido-5-(((5-(4-fluorophenyl)-1,2,4-oxadiazol-3-yl)methyl)amino)-3-(pentan-3-yloxy)cyclohex-1-ene-1-carboxylic acid]",0.0 ± 3.5
4,CCC(CC)O[C@@H]1C=C(C(=O)O)C[C@H](NCc2noc(-c3ccccn3)n2)[C@H]1NC(C)=O [Compound S4],17.1 ± 2.0
5,"CCC(CC)O[C@@H]1C=C(C(=O)O)C[C@H](NCc2noc(-c3ccc(Br)cc3)n2)[C@H]1NC(C)=O [Compound S5, (3R,4R,5S)-4-acetamido-5-(((5-(4-bromophenyl)-1,2,4-oxadiazol-3-yl)methyl)amino)-3-(pentan-3-yloxy)cyclohex-1-ene-1-carboxylic acid]",1.7 ± 2.1
6,"CCC(CC)O[C@@H]1C=C(C(=O)O)C[C@H](NCc2noc(-c3cccc([N+](=O)[O-])c3)n2)[C@H]1NC(C)=O [Compound S6, (3R,4R,5S)-4-acetamido-5-(((5-(3-nitrophenyl)-1,2,4-oxadiazol-3-yl)methyl)amino)-3-(pentan-3-yloxy)cyclohex-1-ene-1-carboxylic acid]",18.4 ± 3.6
7,"CCC(CC)O[C@@H]1C=C(C(=O)O)C[C@H](NCc2noc(-c3ccccc3)n2)[C@H]1NC(C)=O [Compound S8, (3R,4R,5S)-4-acetamido-3-(pentan-3-yloxy)-5-(((5-phenyl-1,2,4-oxadiazol-3-yl)methyl)amino)cyclohex-1-ene-1-carboxylic acid]",0.0 ± 2.0
8,"CCC(CC)O[C@@H]1C=C(C(=O)O)C[C@H](NCc2noc(-c3ccc4ccccc4c3)n2)[C@H]1NC(C)=O [Compound S9, (3R,4R,5S)-4-acetamido-5-(((5-(naphthalen-2-yl)-1,2,4-oxadiazol-3-yl)methyl)amino)-3-(pentan-3-yloxy)cyclohex-1-ene-1-carboxylic acid]",1.5 ± 1.2
9,"CCC(CC)O[C@@H]1C=C(C(=O)O)C[C@H](NCc2noc(-c3ccccc3C)n2)[C@H]1NC(C)=O [Compound S10, (3R,4R,5S)-4-acetamido-3-(pentan-3-yloxy)-5-(((5-(o-tolyl)-1,2,4-oxadiazol-3-yl)methyl)amino)cyclohex-1-ene-1-carboxylic acid]",0.5 ± 2.0
10,"CCC(CC)O[C@@H]1C=C(C(=O)O)C[C@H](NCc2noc(-c3cc(OC)c(OC)c(OC)c3)n2)[C@H]1NC(C)=O [Compound S11, (3R,4R,5S)-4-acetamido-3-(pentan-3-yloxy)-5-(((5-(3,4,5-trimethoxyphenyl)-1,2,4-oxadiazol-3-yl)methyl)amino)cyclohex-1-ene-1-carboxylic acid]",3.5 ± 3.1
11,"CCC(CC)O[C@@H]1C=C(C(=O)O)C[C@H](NCc2noc(-c3ccc(Cl)cc3)n2)[C@H]1NC(C)=O [Compound S12, (3R,4R,5S)-4-Acetamido-5-(((5-(4-chlorophenyl)-1,2,4-oxadiazol-3-yl)methyl)amino)-3-(pentan-3-yloxy)cyclohex-1-ene-1-carboxylic acid]",4.01 ± 5.9
12,"CCC(CC)O[C@@H]1C=C(C(=O)O)C[C@H](NCc2noc(-c3c(F)cccc3F)n2)[C@H]1NC(C)=O [Compound S13, (3R,4R,5S)-4-acetamido-5-(((5-(2,6-difluorophenyl)-1,2,4-oxadiazol-3-yl)methyl)amino)-3-(pentan-3-yloxy)cyclohex-1-ene-1-carboxylic acid]",0.0 ± 2.6
13,"CCC(CC)O[C@@H]1C=C(C(=O)O)C[C@H](NCc2ccc(-c3ccc(OC)cc3)o2)[C@H]1NC(C)=O [Compound S14, (3R,4R,5S)-4-Acetamido-5-(((5-(4-methoxyphenyl)furan-2-yl)methyl)amino)-3-(pentan-3-yloxy)cyclohex-1-ene-1-carboxylic acid]",14.7 ± 4.4
14,"CCC(CC)O[C@@H]1C=C(C(=O)O)C[C@H](NCc2ccc(-c3ccc(F)cc3)o2)[C@H]1NC(C)=O [Compound S15, (3R,4R,5S)-4-Acetamido-5-(((5-(4-fluorophenyl)furan-2-yl)methyl)amino)-3-(pentan-3-yloxy)cyclohex-1-ene-1-carboxylic acid]",3.2 ± 3.7
15,"CCC(CC)O[C@@H]1C=C(C(=O)O)C[C@H](NCc2ccc(-c3ccccc3C)o2)[C@H]1NC(C)=O [Compound S16, (3R,4R,5S)-4-Acetamido-3-(pentan-3-yloxy)-5-(((5-(o-tolyl)furan-2-yl)methyl)amino)cyclohex-1-ene-1-carboxylic acid]",8.4 ± 1.8
16,"CCC(CC)O[C@@H]1C=C(C(=O)O)C[C@H](NCc2ccc(-c3cc(F)cc(F)c3)o2)[C@H]1NC(C)=O [Compound S17, (3R,4R,5S)-4-Acetamido-5-(((5-(3,5-difluorophenyl)furan-2-yl)methyl)amino)-3-(pentan-3-yloxy)cyclohex-1-ene-1-carboxylic acid]",3.7 ± 3.8
17,"CCC(CC)O[C@@H]1C=C(C(=O)O)C[C@H](NCc2ccc(-c3ccc(OC)c(OC)c3)o2)[C@H]1NC(C)=O [Compound S18, (3R,4R,5S)-4-Acetamido-5-(((5-(3,4-dimethoxyphenyl)furan-2-yl)methyl)amino)-3-(pentan-3-yloxy)cyclohex-1-ene-1-carboxylic acid]",12.9 ± 1.2
18,CCC(CC)O[C@@H]1C=C(C(=O)O)C[C@H](NCc2ccc(-c3cccc(Cl)c3)o2)[C@H]1NC(C)=O [Compound S19],5.5 ± 2.4
19,"CCC(CC)O[C@@H]1C=C(C(=O)O)C[C@H](NCc2ccc(-c3ccsc3)o2)[C@H]1NC(C)=O [Compound S20, (3R,4R,5S)-4-Acetamido-3-(pentan-3-yloxy)-5-(((5-(thiophen-3-yl)furan-2-yl)methyl)amino)cyclohex-1-ene-1-carboxylic acid]",12.5 ± 2.3
20,"CCC(CC)O[C@@H]1C=C(C(=O)O)C[C@H](NCc2ccc(-c3cc(Cl)ccc3C)o2)[C@H]1NC(C)=O [Compound S21, (3R,4R,5S)-4-acetamido-5-(((5-(5-chloro-2-methylphenyl)furan-2-yl)methyl)amino)-3-(pentan-3-yloxy)cyclohex-1-ene-1-carboxylic acid]",4.8 ± 1.1
21,"CCC(CC)O[C@@H]1C=C(C(=O)O)C[C@H](NCc2ccc(-c3cccc4c3oc3ccccc34)o2)[C@H]1NC(C)=O [Compound S23, (3R,4R,5S)-4-acetamido-5-(((5-(dibenzo[b,d]furan-4-yl)furan-2-yl)methyl)amino)-3-(pentan-3-yloxy)cyclohex-1-ene-1-carboxylic acid]",10.9 ± 0.7
